Source: patent US11279681B2, “3-alkyl bicyclic [4,5,0] hydroxamic acids as HDAC inhibitors” (Valo Health, Inc., priority 2015, dated 2022)

The molecules below were run against T1, HDAC6 (Homo sapiens, UniProt Q9UBN7) (assay: In vitro histone deacetylase assay: enzymatic HDAC6 electrophoretic mobility shift assay). Conditions: full length human recombinant HDAC6, 1 nM enzyme, 2 μM peptide substrate RHKK(Ac)-NH2, 25° C.; read-out: Inhibitory Concentration (IC50) Values for Representative Compounds against HDAC6, Activity Range.
T1 sequence (Q9UBN7 1-1215): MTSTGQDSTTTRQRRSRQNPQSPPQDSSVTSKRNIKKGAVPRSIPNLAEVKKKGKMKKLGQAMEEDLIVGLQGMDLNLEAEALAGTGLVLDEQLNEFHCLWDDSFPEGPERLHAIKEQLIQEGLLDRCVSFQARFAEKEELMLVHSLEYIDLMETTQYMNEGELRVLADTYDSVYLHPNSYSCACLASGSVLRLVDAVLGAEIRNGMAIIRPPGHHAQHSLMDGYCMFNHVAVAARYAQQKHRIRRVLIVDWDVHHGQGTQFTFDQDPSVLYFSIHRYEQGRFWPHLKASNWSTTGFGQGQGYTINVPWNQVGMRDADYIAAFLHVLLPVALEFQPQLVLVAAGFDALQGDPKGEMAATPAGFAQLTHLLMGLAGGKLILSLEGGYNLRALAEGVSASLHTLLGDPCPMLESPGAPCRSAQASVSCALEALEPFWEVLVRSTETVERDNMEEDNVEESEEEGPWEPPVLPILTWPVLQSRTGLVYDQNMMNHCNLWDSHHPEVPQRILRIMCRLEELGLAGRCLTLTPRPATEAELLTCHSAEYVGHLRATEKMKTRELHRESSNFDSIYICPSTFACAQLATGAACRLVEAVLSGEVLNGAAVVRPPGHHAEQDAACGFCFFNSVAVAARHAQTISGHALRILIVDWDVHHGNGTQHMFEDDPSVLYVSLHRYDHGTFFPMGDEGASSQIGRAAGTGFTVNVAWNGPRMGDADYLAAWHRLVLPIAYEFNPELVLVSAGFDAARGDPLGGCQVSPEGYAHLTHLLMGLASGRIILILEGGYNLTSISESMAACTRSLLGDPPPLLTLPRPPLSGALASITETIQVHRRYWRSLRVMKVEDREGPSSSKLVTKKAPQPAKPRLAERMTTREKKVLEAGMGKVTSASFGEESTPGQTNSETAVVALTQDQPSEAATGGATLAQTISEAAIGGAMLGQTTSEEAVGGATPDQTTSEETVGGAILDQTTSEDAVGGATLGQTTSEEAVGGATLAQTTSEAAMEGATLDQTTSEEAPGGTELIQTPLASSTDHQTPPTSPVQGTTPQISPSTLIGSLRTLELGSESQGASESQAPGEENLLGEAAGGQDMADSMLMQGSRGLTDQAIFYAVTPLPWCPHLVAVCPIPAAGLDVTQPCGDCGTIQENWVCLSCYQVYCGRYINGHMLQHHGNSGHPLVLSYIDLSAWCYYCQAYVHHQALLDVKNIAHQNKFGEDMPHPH
Type: biochemical

| IC50 [nM] | SMILES |
| --- | --- |
| 100 to 500 | C[C@H]1COc2cc(C(=O)NO)ccc2CN1c1ccc(OC(F)(F)F)cc1 [(S)-N-hydroxy-3-methyl-4-(4-(trifluoromethoxy)phenyl)-2,3,4,5-tetrahydrobenzo[f][1,4]oxazepine-8-carboxamide] |
| 100 to 500 | C[C@H]1COc2cc(C(=O)NO)ccc2CN1c1ccc(C(F)(F)F)cc1 [(S)-N-hydroxy-3-methyl-4-(4-(trifluoromethyl)phenyl)-2,3,4,5-tetrahydrobenzo[f][1,4]oxazepine-8-carboxamide] |
| 100 to 500 | C[C@H]1COc2cc(C(=O)NO)ccc2CN1C(=O)N1CCN(C)CC1 [(S)-N-hydroxy-3-methyl-4-(4-methylpiperazine-1-carbonyl)-2,3,4,5-tetrahydrobenzo[f][1,4]oxazepine-8-carboxamide] |
| ≤ 100 | C[C@H]1COc2cc(C(=O)NO)ccc2CN1S(C)(=O)=O [(S)-N-hydroxy-3-methyl-4-(methylsulfonyl)-2,3,4,5-tetrahydrobenzo[f][1,4]oxazepine-8-carboxamide] |
| ≤ 100 | C[C@H]1COc2cc(C(=O)NO)ccc2CN1C(=O)N1CCOCC1 [(S)-N-hydroxy-3-methyl-4-(morpholine-4-carbonyl)-2,3,4,5-tetrahydrobenzo[f][1,4]oxazepine-8-carboxamide] |
| ≤ 100 | Cc1ccccc1N1Cc2ccc(C(=O)NO)cc2OC[C@@H]1C [(S)-N-hydroxy-3-methyl-4-(o-tolyl)-2,3,4,5-tetrahydrobenzo[f][1,4]oxazepine-8-carboxamide] |
| > 500 | C[C@H]1COc2cc(C(=O)NO)ccc2CN1C1COC1 [(S)-N-hydroxy-3-methyl-4-(oxetan-3-yl)-2,3,4,5-tetrahydrobenzo[f][1,4]oxazepine-8-carboxamide] |
| ≤ 100 | C[C@H]1COc2cc(C(=O)NO)ccc2CN1CC1COC1 [(S)-N-hydroxy-3-methyl-4-(oxetan-3-ylmethyl)-2,3,4,5-tetrahydrobenzo[f][1,4]oxazepine-8-carboxamide] |
| ≤ 100 | C[C@H]1COc2cc(C(=O)NO)ccc2CN1C(=O)N1CCCCC1 [(S)-N-hydroxy-3-methyl-4-(piperidine-1-carbonyl)-2,3,4,5-tetrahydrobenzo[f][1,4]oxazepine-8-carboxamide] |
| ≤ 100 | C[C@H]1COc2cc(C(=O)NO)ccc2CN1c1ccccn1 [(S)-N-hydroxy-3-methyl-4-(pyridin-2-yl)-2,3,4,5-tetrahydrobenzo[f][1,4]oxazepine-8-carboxamide] |
| ≤ 100 | C[C@H]1COc2cc(C(=O)NO)ccc2CN1c1cccnc1 [(S)-N-hydroxy-3-methyl-4-(pyridin-3-yl)-2,3,4,5-tetrahydrobenzo[f][1,4]oxazepine-8-carboxamide] |
| 100 to 500 | C[C@H]1COc2cc(C(=O)NO)ccc2CN1c1ccncc1 [(S)-N-hydroxy-3-methyl-4-(pyridin-4-yl)-2,3,4,5-tetrahydrobenzo[f][1,4]oxazepine-8-carboxamide] |
| ≤ 100 | C[C@H]1COc2cc(C(=O)NO)ccc2CN1C(=O)N1CCCC1 [(S)-N-hydroxy-3-methyl-4-(pyrrolidine-1-carbonyl)-2,3,4,5-tetrahydrobenzo[f][1,4]oxazepine-8-carboxamide] |
| ≤ 100 | COCCN1Cc2ccc(C(=O)NO)cc2OC[C@@H]1C [(S)-N-hydroxy-4-(2-methoxyethyl)-3-methyl-2,3,4,5-tetrahydrobenzo[f][1,4]oxazepine-8-carboxamide] |
| ≤ 100 | COc1ccccc1N1Cc2ccc(C(=O)NO)cc2OC[C@@H]1C [(S)-N-hydroxy-4-(2-methoxyphenyl)-3-methyl-2,3,4,5-tetrahydrobenzo[f][1,4]oxazepine-8-carboxamide] |
| ≤ 100 | COC1CN(C(=O)N2Cc3ccc(C(=O)NO)cc3OC[C@@H]2C)C1 [(S)-N-hydroxy-4-(3-methoxyazetidine-1-carbonyl)-3-methyl-2,3,4,5-tetrahydrobenzo[f][1,4]oxazepine-8-carboxamide] |
| 100 to 500 | COCCCN1Cc2ccc(C(=O)NO)cc2OC[C@@H]1C [(S)-N-hydroxy-4-(3-methoxypropyl)-3-methyl-2,3,4,5-tetrahydrobenzo[f][1,4]oxazepine-8-carboxamide] |
